According to PubChem BioAssay AID1963856 (Molecular Pharmacology Branch, DTP, NCI, 2024):

System: LG0567-F671-PDC KRAS tumor spheroid viability
Experiment: Anticancer human tumor LG0567-F671-PDC patient-derived lung adenocarcinoma cell line growth inhibition [KRAS2]
Conditions: spheroids with HUVEC and MSC; for viability, T/C: stronger effect = lower value
Description: Multicellular complex tumor spheroid response to RAS pathway inhibitors in combination with a targeted agents in patient-derived cell lines with oncogenic KRAS variants from multiple cancer types
A high-throughput screen of multi-cell type tumor spheroids was designed to identify active combinations of targeted small molecules and KRAS pathway inhibitors. Complex spheroids include a stromal component modeled by human endothelial cells (HUVEC) and fibroblasts modeled by human mesenchymal stem cells (MSCs). The concentration ranges selected for each drug and investigational agent were based upon clinically achievable concentrations if the clinical Cmax of the agent was known.
Compounds. The drugs and investigational agents: BI-3406 (NSC825286), BAY-293 (NSC824723), batoprotafib (TNO155; NSC825523), sotorasib (AMG 510; NSC818433), MRTX1257 (NSC819558), elimusertib (BAY 1895344; NSC800525), molibresib (GSK525762; NSC774829), temuterkib (LY3214996; NSC803410), venetoclax (NSC766270), alisertib (NSC759677), olaparib (NSC753686), talazoparib (NSC767125), erdafitinib (NSC781556), ipatasertib (NSC767898), cabozantinib (NSC761068), nintedanib (NSC756659), abemaciclib (NSC768073), docetaxel (NSC628503), trametinib (NSC758246), and sapanisertib (NSC764658) were obtained from the National Cancer Institute (NCI) Developmental Therapeutics Program Chemical Repository. The FDA-approved anticancer drug set is available from the Developmental Therapeutics Program. […] The stock solutions were prepared in dimethyl sulfoxide (DMSO, Sigma-Aldrich, St. Louis, MO, cat. D2650) at 800-fold the tested concentration and stored at -70 degrees C prior to their use. All drugs and investigational agents were tested over a range starting from a high concentration at or near the clinical Cmax and decreasing in half-log increments. If the clinical Cmax for an agent had not been determined, the highest concentration tested was 10 microM.
Cell Culture. All cells were maintained in an incubator at 37 degrees C and 5% CO2 with 95% humidity. The PDC lines were cultured according to standard operating procedures established by the NCI PDMR (https://pdmr.cancer.gov/sops/default.htm). Briefly, all PDCs were thawed and cultured in Matrigel-coated flasks prepared with a working solution of 1X Ham's F-12 nutrient mix, without supplementation (Invitrogen, Waltham, MA, cat. 11765054), 100 U/mL penicillin-streptomycin (Invitrogen, cat. 15140122), and 2.5% Matrigel (Corning Inc., Corning, NY, cat. 354248) for the first three passages. All PDCs were cultured in complete DMEM/F-12 media containing advanced DMEM/F-12 (Invitrogen, cat. 12634028), 4.9% defined fetal bovine serum, heat inactivated (HyClone Laboratories Inc., Logan, UT, cat. SH30070.03HI), 389 ng/mL hydrocortisone (Sigma-Aldrich, cat. H4001), 9.7 ng/mL human EGF recombinant protein (Invitrogen, cat. PHG0313), 23.4 microg/mL adenine (Sigma-Aldrich, cat. A2786), 97.3 U/mL penicillin-streptomycin (Invitrogen, cat. 15140122), 1.9 mM L-glutamine (Invitrogen, cat. 25030081), and 9.7 microM Y-27632 dihydrochloride (Tocris Bioscience, Bristol, United Kingdom, cat. 1254). The PDCs were cultured in complete DMEM/F12 media without 9.7 microM Y-27632 dihydrochloride for at least two passages prior to the screen. The established cell line HOP-62 was cultured in RPMI 1640 medium, HEPES (Invitrogen, cat. 22400105) with 10% defined fetal bovine serum (HyClone Laboratories Inc., cat. SH30070.03) and 2 mM L-glutamine (Invitrogen, cat. 25030081). The pooled donor HUVEC were cultured in endothelial cell growth medium 2 (PromoCell, Heidelberg, Germany, cat. C-22011) and the hMSC were cultured in mesenchymal stem cell growth medium 2 (PromoCell, cat. C-28009). For all experiments, HUVEC and hMSC were used at passages </=5, while the malignant cell lines were used at passages </=15. […]

[1] = curve of first compound, second compound 0.1 µM
[2] = curve of first compound, second compound 0.316 µM
[3] = curve of first compound, second compound 1 µM
[4] = curve of first compound, second compound 3.16 µM
[5] = curve of first compound, second compound 10 µM
[6] = second compound 0.1 µM, first compound 0.0316 µM
[7] = second compound 0.1 µM, first compound 0.1 µM
[8] = second compound 0.1 µM, first compound 0.316 µM
[9] = second compound 0.1 µM, first compound 1 µM
[10] = second compound 0.316 µM, first compound 0.0316 µM
[11] = second compound 0.316 µM, first compound 0.1 µM
[12] = second compound 0.316 µM, first compound 0.316 µM
[13] = second compound 0.316 µM, first compound 1 µM
[14] = second compound 1 µM, first compound 0.0316 µM
[15] = second compound 1 µM, first compound 0.1 µM
[16] = second compound 1 µM, first compound 0.316 µM
[17] = second compound 1 µM, first compound 1 µM
[18] = second compound 3.16 µM, first compound 0.0316 µM
[19] = second compound 3.16 µM, first compound 0.1 µM
[20] = second compound 3.16 µM, first compound 0.316 µM
[21] = second compound 3.16 µM, first compound 1 µM
[22] = second compound 10 µM, first compound 0.0316 µM
[23] = second compound 10 µM, first compound 0.1 µM
[24] = second compound 10 µM, first compound 0.316 µM
[25] = second compound 10 µM, first compound 1 µM
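Note: drug exposure lasted seven days after spheroids formed for three days.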
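Throughout, for viability, T/C: 100% = DMSO vehicle control viability.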

| Structure (SMILES) | IC50 [1] [nM] | IC50 [2] [nM] | IC50 [3] [nM] | IC50 [4] [nM] | IC50 [5] [nM] | viability, T/C [6] [%] | viability, T/C [7] [%] | viability, T/C [8] [%] | viability, T/C [9] [%] | viability, T/C [10] [%] | viability, T/C [11] [%] | viability, T/C [12] [%] | viability, T/C [13] [%] | viability, T/C [14] [%] | viability, T/C [15] [%] | viability, T/C [16] [%] | viability, T/C [17] [%] | viability, T/C [18] [%] | viability, T/C [19] [%] | viability, T/C [20] [%] | also measured |
| --- | --- | --- | --- | --- | --- | --- | --- | --- | --- | --- | --- | --- | --- | --- | --- | --- | --- | --- | --- | --- | --- |
| Cn1nccc1Nc1nccc(-c2cc3c(s2)C(C)(C)N(CCN2CCOCC2)C3=O)n1 + COc1cc2nc(C)nc(NC(C)c3cc(N)cc(C(F)(F)F)c3)c2cc1OC1CCOC1 | 495 | 456 | 506 | 528 | 609 | 79.7 | 67 | 55.3 | 43.2 | 80.5 | 70.7 | 53.9 | 42.1 | 68.2 | 68 | 54.8 | 41.5 | 71.1 | 65.6 | 56.5 | viability, T/C (second compound 0.1 µM, first compound 3.16 µM): 31.3%; viability, T/C (second compound 0.1 µM, first compound 10 µM): 26.6%; viability, T/C (second compound 0.316 µM, first compound 3.16 µM): 25.3%; viability, T/C (second compound 0.316 µM, first compound 10 µM): 26.1%; viability, T/C (second compound 1 µM, first compound 3.16 µM): 30.3%; viability, T/C (second compound 1 µM, first compound 10 µM): 25.5%; viability, T/C [21]: 42.9%; viability, T/C (second compound 3.16 µM, first compound 3.16 µM): 30.8%; viability, T/C (second compound 3.16 µM, first compound 10 µM): 30.2%; viability, T/C [22]: 74.6%; viability, T/C [23]: 72.2%; viability, T/C [24]: 55.8%; viability, T/C [25]: 45.4%; viability, T/C (second compound 10 µM, first compound 3.16 µM): 33.4%; viability, T/C (second compound 10 µM, first compound 10 µM): 29.5% |
| CCN1CCN(Cc2ccc(Nc3ncc(F)c(-c4cc(F)c5nc(C)n(C(C)C)c5c4)n3)nc2)CC1 + CNCc1ccccc1-c1csc(C(C)Nc2nc(C)nc3cc(OC)c(OC)cc23)c1 | 493 | 68.2 | 6.43 | 13.7 | < 3.16 | 65 | 62.6 | 50.1 | 47.3 | 51.1 | 54.8 | 43.8 | 42 | 44.3 | 37.8 | 39.9 | 33.9 | 0.63 | 11.6 | 3.01 | viability, T/C (second compound 0.1 µM, first compound 0.00316 µM): 78%; viability, T/C (second compound 0.1 µM, first compound 0.01 µM): 76.3%; viability, T/C (second compound 0.316 µM, first compound 0.00316 µM): 77.2%; viability, T/C (second compound 0.316 µM, first compound 0.01 µM): 60.5%; viability, T/C (second compound 1 µM, first compound 0.00316 µM): 52%; viability, T/C (second compound 1 µM, first compound 0.01 µM): 50.5%; viability, T/C (second compound 3.16 µM, first compound 0.00316 µM): 60.6%; viability, T/C (second compound 3.16 µM, first compound 0.01 µM): 74.2%; viability, T/C [21]: 0.17%; viability, T/C (second compound 10 µM, first compound 0.00316 µM): 0.18%; viability, T/C (second compound 10 µM, first compound 0.01 µM): 0.15%; viability, T/C [22]: 0.13%; viability, T/C [23]: 0.12%; viability, T/C [24]: 0.13%; viability, T/C [25]: 0.18% |
| Cn1ncnc1[C@H]1c2n[nH]c(=O)c3cc(F)cc(c23)N[C@@H]1c1ccc(F)cc1 |  |  |  |  |  |  |  |  |  |  |  |  |  |  |  |  |  |  |  |  | viability, T/C (compound 0.000316 µM): 99.5% [middle of 5 runs]; viability, T/C (compound 0.001 µM): 106% [middle of 5 runs]; viability, T/C (compound 0.00316 µM): 101% [middle of 5 runs]; viability, T/C (compound 0.01 µM): 102% [middle of 5 runs]; viability, T/C (compound 0.0316 µM): 104% [middle of 5 runs]; viability, T/C (compound 0.1 µM): 90.9% [middle of 5 runs]; IC50 (curve of compound): > 100 nM |
